Reference: ChEMBL document CHEMBL5236572, “Bioactive Aurones, Indanones, and Other Hemiindigoid Scaffolds: Medicinal Chemistry and Photopharmacology Perspectives” (J Med Chem, 2022)
Converted amounts (≈) assume the structure as drawn. One block for each compound: values may come before it.

How the values were obtained:
[1] = target: T1, Amine oxidase [flavin-containing] B (Homo sapiens, UniProt P27338); experiment: Inhibition of recombinant human MAO-B assessed as inhibition of 4-hydroxyquinoline formation using kynuramine as substrate incubated for 20 mins by fluorescence assay
T1 sequence (P27338 whole entry): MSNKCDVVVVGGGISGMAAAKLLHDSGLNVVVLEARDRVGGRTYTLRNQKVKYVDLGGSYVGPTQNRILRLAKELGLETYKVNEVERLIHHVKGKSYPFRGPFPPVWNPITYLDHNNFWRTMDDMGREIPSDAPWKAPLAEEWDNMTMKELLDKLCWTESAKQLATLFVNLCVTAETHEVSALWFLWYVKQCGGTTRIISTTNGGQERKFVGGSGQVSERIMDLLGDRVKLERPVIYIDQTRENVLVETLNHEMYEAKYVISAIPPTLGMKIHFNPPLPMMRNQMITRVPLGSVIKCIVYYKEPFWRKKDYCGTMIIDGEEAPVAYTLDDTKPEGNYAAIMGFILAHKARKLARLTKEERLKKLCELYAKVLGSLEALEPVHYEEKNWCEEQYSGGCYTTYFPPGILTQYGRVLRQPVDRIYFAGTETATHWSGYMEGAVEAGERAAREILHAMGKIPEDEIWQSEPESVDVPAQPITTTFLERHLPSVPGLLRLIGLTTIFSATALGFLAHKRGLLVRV

[2] = target: T2, Amine oxidase [flavin-containing] A (Homo sapiens, UniProt P21397); experiment: Inhibition of recombinant human MAO-A assessed as inhibition of 4-hydroxyquinoline formation using kynuramine as substrate incubated for 20 mins by fluorescence assay
T2 sequence (P21397 whole entry): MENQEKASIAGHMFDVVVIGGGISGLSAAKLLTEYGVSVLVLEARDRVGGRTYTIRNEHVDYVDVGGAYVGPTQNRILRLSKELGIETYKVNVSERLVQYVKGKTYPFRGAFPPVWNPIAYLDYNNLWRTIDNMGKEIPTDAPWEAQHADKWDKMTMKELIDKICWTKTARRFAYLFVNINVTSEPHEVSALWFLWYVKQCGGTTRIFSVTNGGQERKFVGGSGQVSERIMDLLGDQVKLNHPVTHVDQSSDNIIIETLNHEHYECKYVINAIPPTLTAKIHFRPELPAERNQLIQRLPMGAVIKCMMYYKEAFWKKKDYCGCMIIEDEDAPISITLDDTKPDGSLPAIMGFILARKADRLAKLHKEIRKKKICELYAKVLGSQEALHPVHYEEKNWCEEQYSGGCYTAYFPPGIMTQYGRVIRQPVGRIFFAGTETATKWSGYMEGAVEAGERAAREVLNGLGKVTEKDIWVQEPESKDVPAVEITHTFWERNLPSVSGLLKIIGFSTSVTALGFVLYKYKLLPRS

[3] = system: HeLa; experiment: Antiproliferative activity against human HeLa cells assessed as reduction in cell viability incubated for 48 hrs by MTT assay; format: functional, cell-based
[4] = system: PC-3; experiment: Antiproliferative activity against human PC-3 cells assessed as reduction in cell viability incubated for 48 hrs by MTT assay; format: functional, cell-based; conditions: PC-3, 48 h
[5] = system: MDA-MB-231; experiment: Antiproliferative activity against human MDA-MB-231 cells assessed as reduction in cell viability incubated for 48 hrs by MTT assay; format: functional, cell-based; conditions: MDA-MB-231, 48 h
[6] = target: Tubulin (Sus scrofa, UniProt P02554+P02550); experiment: Inhibition of porcine brain tubulin polymerization preincubated for 1 mins followed by GTP addition and measured for 60 mins at 1 min interval by fluorescence assay
[7] = system: A549; experiment: Antiproliferative activity against human A549 cells assessed as reduction in cell viability incubated for 48 hrs by MTT assay; format: functional, cell-based; conditions: A549, 48 h
[8] = system: Bel-7402; experiment: Antiproliferative activity against human Bel-7402 cells assessed as reduction in cell viability incubated for 48 hrs by MTT assay; format: functional, cell-based; conditions: Bel-7402, 48 h
[9] = Selectivity ratio of IC50 for antiproliferative activity against human MES-SA cells to IC50 for antiproliferative activity against doxorubicin resistant human MES-SA/Dx5 cells; format: functional
[10] = system: Candida parapsilosis; experiment: Antifungal activity against Candida parapsilosis assessed as reduction in fungal growth; format: functional; conditions: Lodderomyces parapsilosis
[11] = Inhibition of Saccharomyces cerevisiae full-length ai5gamma intron self-splicing by fluorimetric assay
[12] = system: MES-SA; experiment: Antiproliferative activity against human MES-SA cells assessed as reduction in cell viability incubated for 72 hrs by PrestoBlue cell viability assay; format: functional, cell-based
[13] = system: MES-SA/Dx5; experiment: Antiproliferative activity against doxorubicin resistant human MES-SA/Dx5 cells assessed as reduction in cell viability incubated for 72 hrs by PrestoBlue cell viability assay; format: functional, cell-based; conditions: MES-SA/Dx5, 72 h
[14] = target: Glycogen synthase kinase-3 beta (Homo sapiens, UniProt P49841); experiment: Inhibition of recombinant GSK-3beta (unknown origin) using GS peptide as substrate in presence of ATP incubated for 1 hrs by ADP-Glo kinase assay
[15] = system: HCT-116; experiment: Antiproliferative activity against human HCT-116 cells assessed as reduction in cell viability incubated for 48 hrs by sulforhodamine assay; format: functional, cell-based; conditions: HCT-116, 48 h
[16] = system: A549; experiment: Antiproliferative activity against human A549 cells assessed as reduction in cell viability incubated for 48 hrs by sulforhodamine assay; format: functional, cell-based; conditions: A549, 48 h
[17] = system: MCF7; experiment: Antiproliferative activity against human MCF7 cells assessed as reduction in cell viability incubated for 48 hrs by sulforhodamine assay; format: functional, cell-based; conditions: MCF7, 48 h
[18] = system: THP-1; experiment: Antiproliferative activity against human THP-1 cells assessed as reduction in cell viability incubated for 48 hrs by sulforhodamine assay; format: functional, cell-based; conditions: THP-1, 48 h
[19] = system: T47D; experiment: Antiproliferative activity against human T47D cells assessed as reduction in cell viability incubated for 48 hrs by sulforhodamine assay; format: functional, cell-based
[20] = target: Amyloid-beta precursor protein (Homo sapiens, UniProt P05067); experiment: Binding affinity to human brain homogenate amyloid beta by radioligand competition binding assay; format: tissue-based
[21] = target: Serine/threonine-protein kinase AKT (Homo sapiens, UniProt P31751+Q9Y243+P31749); experiment: Inhibition of AKT (unknown origin); format: protein assay
[22] = target: Serine/threonine-protein kinase pim-1 (Homo sapiens, UniProt P11309); experiment: Inhibition of PIM1 (unknown origin) using poly-Glu-Tyr (4:1) as substrate in presence of [gamma-33P-ATP] incubated for 2 hrs by radiometric kinase assay
[23] = system: Human immunodeficiency virus 1; experiment: Antiviral activity against HIV-1 infected in human C8166 cells assessed as reduction in virus-induced cytopathic effect by MTT assay; format: functional, organism-based; conditions: Human immunodeficiency virus 1, C8166
[24] = Inhibition of Polyporus arcularius tyrosinase using L-DOPA as substrate incubated for 10 mins by spectrophotometric analysis
[25] = target: T3, Tyrosinase (Agaricus bisporus, UniProt O42713); experiment: Inhibition of Agaricus bisporus tyrosinase using L-DOPA as substrate incubated for 10 mins by spectrophotometric analysis
T3 sequence (O42713 whole entry): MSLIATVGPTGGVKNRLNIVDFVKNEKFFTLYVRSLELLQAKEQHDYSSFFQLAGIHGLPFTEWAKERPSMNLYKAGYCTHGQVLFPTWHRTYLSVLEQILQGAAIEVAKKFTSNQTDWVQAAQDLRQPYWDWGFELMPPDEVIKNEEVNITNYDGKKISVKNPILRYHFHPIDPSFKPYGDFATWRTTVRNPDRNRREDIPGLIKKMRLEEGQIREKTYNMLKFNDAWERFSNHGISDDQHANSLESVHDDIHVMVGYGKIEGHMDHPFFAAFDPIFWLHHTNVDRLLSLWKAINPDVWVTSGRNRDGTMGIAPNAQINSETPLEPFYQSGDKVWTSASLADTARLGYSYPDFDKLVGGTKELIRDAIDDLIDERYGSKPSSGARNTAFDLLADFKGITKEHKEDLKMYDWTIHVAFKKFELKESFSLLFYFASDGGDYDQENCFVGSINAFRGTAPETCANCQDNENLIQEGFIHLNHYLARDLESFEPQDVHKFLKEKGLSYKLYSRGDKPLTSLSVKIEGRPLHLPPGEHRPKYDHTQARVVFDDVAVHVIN

Chain of Glycogen synthase kinase-3 beta (P49841 whole entry): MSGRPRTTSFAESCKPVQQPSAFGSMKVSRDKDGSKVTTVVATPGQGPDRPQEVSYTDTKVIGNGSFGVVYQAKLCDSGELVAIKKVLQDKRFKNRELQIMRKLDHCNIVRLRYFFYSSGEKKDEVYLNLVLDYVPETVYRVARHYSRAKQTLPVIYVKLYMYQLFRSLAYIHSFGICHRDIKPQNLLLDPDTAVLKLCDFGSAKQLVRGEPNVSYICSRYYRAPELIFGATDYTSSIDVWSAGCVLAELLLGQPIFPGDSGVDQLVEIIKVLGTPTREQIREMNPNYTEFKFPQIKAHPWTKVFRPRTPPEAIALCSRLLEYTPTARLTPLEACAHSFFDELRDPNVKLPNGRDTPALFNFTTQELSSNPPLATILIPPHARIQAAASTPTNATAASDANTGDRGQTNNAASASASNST
Chain of Serine/threonine-protein kinase pim-1 (P11309 whole entry): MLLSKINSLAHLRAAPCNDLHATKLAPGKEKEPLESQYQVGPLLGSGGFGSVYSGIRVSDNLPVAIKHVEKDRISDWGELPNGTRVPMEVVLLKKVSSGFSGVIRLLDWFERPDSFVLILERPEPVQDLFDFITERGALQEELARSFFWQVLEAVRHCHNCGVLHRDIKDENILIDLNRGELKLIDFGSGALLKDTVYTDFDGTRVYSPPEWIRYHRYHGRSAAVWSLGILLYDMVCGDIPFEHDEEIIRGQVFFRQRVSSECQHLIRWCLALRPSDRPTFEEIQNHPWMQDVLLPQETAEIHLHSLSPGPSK
Chain of Amyloid-beta precursor protein (P05067 whole entry): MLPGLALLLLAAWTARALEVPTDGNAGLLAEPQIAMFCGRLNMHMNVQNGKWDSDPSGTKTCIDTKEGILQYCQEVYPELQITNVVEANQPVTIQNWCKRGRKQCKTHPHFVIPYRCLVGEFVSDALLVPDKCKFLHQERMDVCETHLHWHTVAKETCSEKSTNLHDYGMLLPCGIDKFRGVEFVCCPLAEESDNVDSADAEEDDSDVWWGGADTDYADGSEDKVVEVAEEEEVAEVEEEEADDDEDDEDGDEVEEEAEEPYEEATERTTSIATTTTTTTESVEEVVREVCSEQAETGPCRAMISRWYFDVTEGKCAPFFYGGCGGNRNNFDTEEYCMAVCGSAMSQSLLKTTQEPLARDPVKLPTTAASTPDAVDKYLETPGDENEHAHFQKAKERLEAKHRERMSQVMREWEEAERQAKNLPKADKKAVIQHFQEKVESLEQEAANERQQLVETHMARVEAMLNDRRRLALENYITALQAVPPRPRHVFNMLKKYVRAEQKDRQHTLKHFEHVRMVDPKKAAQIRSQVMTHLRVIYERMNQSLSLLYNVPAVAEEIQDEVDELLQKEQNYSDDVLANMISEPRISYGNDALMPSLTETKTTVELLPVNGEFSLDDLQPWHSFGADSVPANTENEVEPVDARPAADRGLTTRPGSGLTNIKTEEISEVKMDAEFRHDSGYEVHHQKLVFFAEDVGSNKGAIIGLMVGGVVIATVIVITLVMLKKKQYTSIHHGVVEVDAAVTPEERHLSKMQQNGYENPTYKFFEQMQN

Structure (SMILES): CCCCc1ccc(/C=C2\Nc3cc(OC)cc(OC)c3C2=O)cc1
- Ratio IC50 [9]: 4.8

Structure (SMILES): O=C1/C(=C/c2cc(O)c(O)c(O)c2)Oc2ccccc21
- MIC [10]: 53 µM (≈ 14.3 µg/mL)
- Ki [11]: 2.1 µM

Structure (SMILES): COc1cc(OC)c2c(c1)O/C(=C\c1ccc(N(C)C)cc1)C2=O
- Ratio IC50 [9]: 4
- IC50 [12]: 60 µM
- IC50 [13]: 15 µM

Structure (SMILES): O=C1/C(=C/c2c[nH]c3ncccc23)Oc2cc(OCc3cccc(F)c3)ccc21
- IC50 [14]: 0.45 µM

Structure (SMILES): O=C1/C(=C/c2cc(-c3ccncc3)[nH]n2)Oc2cc(O)cc(O)c21
- IC50 [22]: 18 µM

Structure (SMILES): O=C1/C(=C/c2ccc(O)c(O)c2)Oc2c1ccc(O)c2O
- EC50 [23]: 12 µM

Results, then the compound that gave them:

- IC50 [1]: 0.04 µM
- IC50 [2]: 0.18 µM
Structure (SMILES): COc1ccc2c(c1)C/C(=C\c1ccc(Br)o1)C2=O

- IC50 [3]: 0.17 µM
- IC50 [4]: 0.17 µM
- IC50 [5]: 0.17 µM
- IC50 [6]: 7.56 µM
- IC50 [7]: 0.17 µM
- IC50 [8]: 0.17 µM
Structure (SMILES): COc1ccc(/C=C2\Cc3c(cc(OC)c(OC)c3OC)C2=O)cc1O

- MIC [10]: 30 µM (≈ 9.07 µg/mL)
- Ki [11]: 5.8 µM
Structure (SMILES): O=C1/C(=C/c2cc(O)c(O)c(O)c2)Oc2cc(O)cc(O)c21

- IC50 [14]: 0.31 µM
Structure (SMILES): CN(Cc1ccccc1)Cc1c(O)ccc2c1O/C(=C\c1ccc3c(c1)OCO3)C2=O

- IC50 [15]: 4 µM
- IC50 [16]: 4 µM
- IC50 [17]: 4 µM
- IC50 [6]: 1.5 µM
- IC50 [18]: 4 µM
- IC50 [19]: 4 µM
Structure (SMILES): COc1cc(C2/C(=C/c3ccc([N+](=O)[O-])cc3)C(=O)c3cc(OC)c(OC)c(OC)c32)cc(OC)c1OC (stereo not given)

- Ki [20]: 0.24 µM
Structure (SMILES): CN(C)c1ccc(/C=C2\Nc3ccc(I)cc3C2=O)cc1

- IC50 [21]: 0.207 µM
Structure (SMILES): Cc1ccc(C)c2c1C/C(=C\c1ccccc1)C2=O

- IC50 [24]: 34 µM
- IC50 [25]: 4 µM
Structure (SMILES): O=C1/C(=C/c2ccc(O)cc2O)Oc2cccc(O)c21
